Tests used:
rabbit [1] = settings: Prenatal developmental toxicity study; new zealand white; Oral; Gavage/Intubation; dose end: 19 GD; group: maternal; reproductive / reproductive performance / aborted / aborted + reproductive / reproductive performance / resorptions / resorptions + systemic…
rat [2] = settings: Multigenerational reproductive toxicity study, sprague dawley, Oral, Feed, dose end: 2 generation
rat [3] = settings: Subchronic oral toxicity in rodents, other, Feed, dose end: 13 week, group: systemic, systemic / organ weight / liver / relative to body weight + systemic / organ weight / thymus / absolute + systemic / organ weight / thymus…
mouse = settings: Carcinogenicity; cd1; Oral; Feed; dose end: 87 week; group: systemic; systemic / clinical chemistry / alanine aminotransferase (alt/sgpt) / alanine aminotransferase (alt/sgpt) + systemic / clinical chemistry / …
rat [4] = settings: Prenatal developmental toxicity study, other, Oral, Gavage/Intubation, dose end: 15 GD
dog = settings: Chronic toxicity, beagle, Oral, Feed, dose end: 104 week, group: systemic
rat [5] = settings: Subchronic oral toxicity in rodents, sprague dawley, Diet, dose end: 13 week, group: systemic
rabbit [6] = settings: Prenatal developmental toxicity study; new zealand white; Oral; Gavage/Intubation; dose end: 18 GD; group: maternal; systemic / in life observation / body weight / body weight gain + systemic / in life observation / clinical signs / anorexia + systemic / in…
rat [7] = settings: Subchronic oral toxicity in rodents, long evans, Feed, dose end: 13 week, group: systemic, systemic / organ weight / liver / absolute + systemic / organ weight / liver / relative to body weight + systemic / pathology microscopic / …
[8] = group: offspring, systemic / in life observation / body weight / offspring (pup) weight + systemic / in life observation / body weight / offspring (pup) …
[9] = group: parental, systemic / pathology microscopic / kidney / hyperplasia + systemic / pathology microscopic / kidney / mineralization + systemic / pathology …
[10] = group: reproductive, reproductive / offspring survival early / birth index / live birth index
[11] = group: developmental, developmental / developmental malformation / bone / bent + developmental / developmental malformation / bone / fused + developmental / …
[12] = group: maternal, systemic / in life observation / clinical signs / defecation + systemic / in life observation / clinical signs / defecation (diarrhea) + …
[13] = systemic / clinical chemistry / alkaline phosphatase (alp/alk) / alkaline phosphatase (alp/alk) + systemic / in life observation / body …
[14] = systemic / in life observation / body weight / body weight gain + systemic / organ weight / liver / absolute + systemic / organ weight / …
[15] = systemic / in life observation / clinical signs / anemia - microcytic + systemic / urinalysis / volume / volume + systemic / clinical …

**Q.** With `CCOc1cc(Oc2ccc(C(F)(F)F)cc2Cl)ccc1[N+](=O)[O-]` [Oxyfluorfen] as the compound, how does the LEL (rabbit [1]) read?
**A.** 90 mg/kg/day

**Q.** And the LOAEL (rabbit [1])?
**A.** 90 mg/kg/day

**Q.** What about the NEL (rabbit [1]) of the same compound?
**A.** 30 mg/kg/day

**Q.** What about the NOAEL (rabbit [1]) of the same compound?
**A.** 30 mg/kg/day

**Q.** And the LEL (rat [2]; [8])?
**A.** 146 mg/kg/day

**Q.** What about the LOAEL (rat [2]; [8]) of the same compound?
**A.** 146 mg/kg/day

**Q.** What about the NEL (rat [2]; [8]) of the same compound?
**A.** 36.4 mg/kg/day

**Q.** What about the NOAEL (rat [2]; [8]) of the same compound?
**A.** 36.4 mg/kg/day

**Q.** And the LEL (rat [2]; [9])?
**A.** 120 mg/kg/day

**Q.** What about the LOAEL (rat [2]; [9]) of the same compound?
**A.** 120 mg/kg/day

**Q.** What about the NEL (rat [2]; [9]) of the same compound?
**A.** 30.9 mg/kg/day

**Q.** And the NOAEL (rat [2]; [9])?
**A.** 30.9 mg/kg/day

**Q.** What about the LEL (rat [2]; [10]) of the same compound?
**A.** 146 mg/kg/day

**Q.** And the LOAEL (rat [2]; [10])?
**A.** 146 mg/kg/day

**Q.** And the NEL (rat [2]; [10])?
**A.** 36.4 mg/kg/day

**Q.** And the NOAEL (rat [2]; [10])?
**A.** 36.4 mg/kg/day

**Q.** What about the LEL (rat [3]) of the same compound?
**A.** 71 mg/kg/day

**Q.** What about the LOAEL (rat [3]) of the same compound?
**A.** 71 mg/kg/day

**Q.** What about the NEL (rat [3]) of the same compound?
**A.** 14 mg/kg/day

**Q.** What about the NOAEL (rat [3]) of the same compound?
**A.** 14 mg/kg/day

**Q.** And the LEL (mouse)?
**A.** 33 mg/kg/day

**Q.** What about the LOAEL (mouse) of the same compound?
**A.** 33 mg/kg/day

**Q.** What about the NEL (mouse) of the same compound?
**A.** 3 mg/kg/day

**Q.** What about the NOAEL (mouse) of the same compound?
**A.** 3 mg/kg/day

**Q.** What about the LEL (rat [4]; [11]) of the same compound?
**A.** 183 mg/kg/day

**Q.** And the LOAEL (rat [4]; [11])?
**A.** 183 mg/kg/day

**Q.** And the NEL (rat [4]; [11])?
**A.** 18 mg/kg/day

**Q.** And the NOAEL (rat [4]; [11])?
**A.** 18 mg/kg/day

**Q.** What about the LEL (rat [4]; [12]) of the same compound?
**A.** 183 mg/kg/day

**Q.** And the LOAEL (rat [4]; [12])?
**A.** 183 mg/kg/day

**Q.** What about the NEL (rat [4]; [12]) of the same compound?
**A.** 18 mg/kg/day

**Q.** What about the NOAEL (rat [4]; [12]) of the same compound?
**A.** 18 mg/kg/day

**Q.** And the LOAEL (dog; [13])?
**A.** 18.5 mg/kg/day

**Q.** What about the NOAEL (dog; [13]) of the same compound?
**A.** 3.1 mg/kg/day

**Q.** And the LEL (dog; [14])?
**A.** 3 mg/kg/day

**Q.** What about the NEL (dog; [14]) of the same compound?
**A.** < 3 mg/kg/day

**Q.** And the LEL (rat [5]; systemic / hematology / mean corpuscular (cell) volume (mcv) / mean corpuscular (cell) volume (mcv) + systemic / hematology / mean …)?
**A.** 144 mg/kg/day

**Q.** And the LOAEL (rat [5]; systemic / in life observation / clinical signs / anemia - microcytic + systemic / urinalysis / volume / volume)?
**A.** 585 mg/kg/day

**Q.** What about the NEL (rat [5]; [15]) of the same compound?
**A.** 46.7 mg/kg/day

**Q.** And the NOAEL (rat [5]; [15])?
**A.** 144 mg/kg/day

**Q.** What about the LEL (rabbit [6]) of the same compound?
**A.** 30 mg/kg/day

**Q.** And the LOAEL (rabbit [6])?
**A.** 30 mg/kg/day

**Q.** What about the NEL (rabbit [6]) of the same compound?
**A.** 10 mg/kg/day

**Q.** And the NOAEL (rabbit [6])?
**A.** 10 mg/kg/day

**Q.** And the LEL (rat [7])?
**A.** 51.4 mg/kg/day

**Q.** And the LOAEL (rat [7])?
**A.** 51.4 mg/kg/day

**Q.** What about the NEL (rat [7]) of the same compound?
**A.** < 51.4 mg/kg/day

**Q.** What about the NOAEL (rat [7]) of the same compound?
**A.** < 51.4 mg/kg/day

Reference: EPA's ToxRefDB 2
